Laboratory results reported in the NIST ThermoML archive (doi:10.1016/j.jct.2017.03.016).
± gives the expanded uncertainty stated by the source.

Legend:
[1] = wn = mass fraction of the nth substance listed; settings: for surface tension liquid-gas: Maximal bubble pressure; for mass density: 100 kPa, Liquid, Vibrating tube method
[2] = refractive index (Na D-line) (dimensionless); wn = mass fraction of the nth substance listed; settings: 100 kPa, Liquid, Standard Abbe refractometry

CCn1cc[n+](CCOC)c1.N#C[N-]C#N [1-ethyl-3-(2-methoxyethyl)imidazolium dicyanamide] + O
Settings	mass density, [1] [kg/m3]	refractive index, [2]	surface tension liquid-gas, [1] [mN/m]
298.15 K, w2 = 0.00031	–	–	51.1 ± 0.5
298.15 K, w2 = 0.00148	1113.35 ± 2.3	1.5049 ± 0.0031	–
298.15 K, w2 = 0.00175	–	–	51.3 ± 0.5
298.15 K, w2 = 0.00277	1113.18 ± 2.3	1.5045 ± 0.0031	–
298.15 K, w2 = 0.00317	–	–	51.7 ± 0.5
298.15 K, w2 = 0.00434	1112.96 ± 2.3	1.5041 ± 0.0031	–
298.15 K, w2 = 0.00461	–	–	52 ± 0.5
298.15 K, w2 = 0.0055	1112.77 ± 2.3	1.5037 ± 0.0031	–
298.15 K, w2 = 0.00609	–	–	52.3 ± 0.5
298.15 K, w2 = 0.00719	1112.46 ± 2.3	1.5033 ± 0.0031	–
303.15 K, w2 = 0.00031	–	–	50.8 ± 0.5
303.15 K, w2 = 0.00148	1109.96 ± 2.3	1.5036 ± 0.0031	–
303.15 K, w2 = 0.00175	–	–	51.1 ± 0.5
303.15 K, w2 = 0.00277	1109.78 ± 2.3	1.5032 ± 0.0031	–
303.15 K, w2 = 0.00317	–	–	51.4 ± 0.5
303.15 K, w2 = 0.00434	1109.57 ± 2.3	1.5028 ± 0.0031	–
303.15 K, w2 = 0.00461	–	–	51.7 ± 0.5
303.15 K, w2 = 0.0055	1109.37 ± 2.3	1.5024 ± 0.0031	–
303.15 K, w2 = 0.00609	–	–	52 ± 0.5
303.15 K, w2 = 0.00719	1109.06 ± 2.3	1.5019 ± 0.0031	–
308.15 K, w2 = 0.00031	–	–	50.5 ± 0.5
308.15 K, w2 = 0.00148	1106.58 ± 2.3	1.5024 ± 0.0031	–
308.15 K, w2 = 0.00175	–	–	50.8 ± 0.5
308.15 K, w2 = 0.00277	1106.41 ± 2.3	1.5019 ± 0.0031	–
308.15 K, w2 = 0.00317	–	–	51.1 ± 0.5
308.15 K, w2 = 0.00434	1106.19 ± 2.3	1.5015 ± 0.0031	–
308.15 K, w2 = 0.00461	–	–	51.4 ± 0.5
308.15 K, w2 = 0.0055	1106 ± 2.3	1.501 ± 0.0031	–
308.15 K, w2 = 0.00609	–	–	51.7 ± 0.5
308.15 K, w2 = 0.00719	1105.69 ± 2.3	1.5006 ± 0.0031	–
313.15 K, w2 = 0.00031	–	–	50.2 ± 0.5
313.15 K, w2 = 0.00148	1103.23 ± 2.3	1.5012 ± 0.0031	–
313.15 K, w2 = 0.00175	–	–	50.5 ± 0.5
313.15 K, w2 = 0.00277	1103.05 ± 2.3	1.5007 ± 0.0031	–
313.15 K, w2 = 0.00317	–	–	50.8 ± 0.5
313.15 K, w2 = 0.00434	1102.83 ± 2.3	1.5002 ± 0.0031	–
313.15 K, w2 = 0.00461	–	–	51.1 ± 0.5
313.15 K, w2 = 0.0055	1102.64 ± 2.3	1.4996 ± 0.0031	–
313.15 K, w2 = 0.00609	–	–	51.4 ± 0.5
313.15 K, w2 = 0.00719	1102.33 ± 2.3	1.4992 ± 0.0031	–
318.15 K, w2 = 0.00031	–	–	49.9 ± 0.5
318.15 K, w2 = 0.00148	1099.89 ± 2.3	1.4996 ± 0.0031	–
318.15 K, w2 = 0.00175	–	–	50.2 ± 0.5
318.15 K, w2 = 0.00277	1099.72 ± 2.3	1.4992 ± 0.0031	–
318.15 K, w2 = 0.00317	–	–	50.5 ± 0.5
318.15 K, w2 = 0.00434	1099.5 ± 2.3	1.4987 ± 0.0031	–
318.15 K, w2 = 0.00461	–	–	50.8 ± 0.5
318.15 K, w2 = 0.0055	1099.3 ± 2.3	1.4982 ± 0.0031	–
318.15 K, w2 = 0.00609	–	–	51.1 ± 0.5
318.15 K, w2 = 0.00719	1098.99 ± 2.3	1.4979 ± 0.0031	–
323.15 K, w2 = 0.00031	–	–	49.6 ± 0.5
323.15 K, w2 = 0.00148	1096.58 ± 2.3	1.4984 ± 0.0031	–
323.15 K, w2 = 0.00175	–	–	49.9 ± 0.5
323.15 K, w2 = 0.00277	1096.4 ± 2.3	1.498 ± 0.0031	–
323.15 K, w2 = 0.00317	–	–	50.2 ± 0.5
323.15 K, w2 = 0.00434	1096.18 ± 2.3	1.4975 ± 0.0031	–
323.15 K, w2 = 0.00461	–	–	50.6 ± 0.5
323.15 K, w2 = 0.0055	1095.98 ± 2.3	1.497 ± 0.0031	–
323.15 K, w2 = 0.00609	–	–	50.8 ± 0.5
323.15 K, w2 = 0.00719	1095.66 ± 2.3	1.4965 ± 0.0031	–
328.15 K, w2 = 0.00031	–	–	49.4 ± 0.5
328.15 K, w2 = 0.00148	1093.27 ± 2.3	1.4971 ± 0.0031	–
328.15 K, w2 = 0.00175	–	–	49.7 ± 0.5
328.15 K, w2 = 0.00277	1093.1 ± 2.3	1.4966 ± 0.0031	–
328.15 K, w2 = 0.00317	–	–	50 ± 0.5
328.15 K, w2 = 0.00434	1092.88 ± 2.3	1.496 ± 0.0031	–
328.15 K, w2 = 0.00461	–	–	50.4 ± 0.5
328.15 K, w2 = 0.0055	1092.68 ± 2.3	1.4955 ± 0.0031	–
328.15 K, w2 = 0.00609	–	–	50.6 ± 0.5
328.15 K, w2 = 0.00719	1092.36 ± 2.3	1.4949 ± 0.0031	–
333.15 K, w2 = 0.00031	–	–	49.1 ± 0.5
333.15 K, w2 = 0.00148	1090 ± 2.3	1.4954 ± 0.0031	–
333.15 K, w2 = 0.00175	–	–	49.5 ± 0.5
333.15 K, w2 = 0.00277	1089.82 ± 2.3	1.495 ± 0.0031	–
333.15 K, w2 = 0.00317	–	–	49.8 ± 0.5
333.15 K, w2 = 0.00434	1089.59 ± 2.3	1.4945 ± 0.0031	–
333.15 K, w2 = 0.00461	–	–	50.1 ± 0.5
333.15 K, w2 = 0.0055	1089.4 ± 2.3	1.4939 ± 0.0031	–
333.15 K, w2 = 0.00609	–	–	50.4 ± 0.5
333.15 K, w2 = 0.00719	1089.08 ± 2.3	1.4934 ± 0.0031	–
338.15 K, w2 = 0.00031	–	–	48.8 ± 0.5
338.15 K, w2 = 0.00148	1086.74 ± 2.3	1.4941 ± 0.0031	–
338.15 K, w2 = 0.00175	–	–	49.2 ± 0.5
338.15 K, w2 = 0.00277	1086.56 ± 2.3	1.4935 ± 0.0031	–
338.15 K, w2 = 0.00317	–	–	49.5 ± 0.5
338.15 K, w2 = 0.00434	1086.33 ± 2.3	1.4929 ± 0.0031	–
338.15 K, w2 = 0.00461	–	–	49.8 ± 0.5
338.15 K, w2 = 0.0055	1086.13 ± 2.3	1.4923 ± 0.0031	–
338.15 K, w2 = 0.00609	–	–	50.1 ± 0.5
338.15 K, w2 = 0.00719	1085.81 ± 2.3	1.4919 ± 0.0031	–
